From patent US9145415B2, “Nitrogen-containing heterocyclic compound or salt thereof” (FUJIFILM Corporation, priority 2012, dated 2015)
pIC50: −log10 of the molar value. Like-named read-outs stand apart in the source and are kept apart here.

Columns and labels:
[1] = molecular target: T1, human FLT3 protein (FLT3 (WT)) (Homo sapiens, UniProt P36888); test: FLT3 inhibition test (FLT3 enzyme inhibition, time-resolved fluorescence of substrate peptide phosphorylation); type: biochemical; settings: read-out: FLT3 (WT) enzyme inhibition activity
T1 construct: human FLT3 protein (intracellular region, 564 to 993 aa); GST; purchased Carna Biosciences; host or cells: baculovirus expression system
T1 sequence (P36888 564-993): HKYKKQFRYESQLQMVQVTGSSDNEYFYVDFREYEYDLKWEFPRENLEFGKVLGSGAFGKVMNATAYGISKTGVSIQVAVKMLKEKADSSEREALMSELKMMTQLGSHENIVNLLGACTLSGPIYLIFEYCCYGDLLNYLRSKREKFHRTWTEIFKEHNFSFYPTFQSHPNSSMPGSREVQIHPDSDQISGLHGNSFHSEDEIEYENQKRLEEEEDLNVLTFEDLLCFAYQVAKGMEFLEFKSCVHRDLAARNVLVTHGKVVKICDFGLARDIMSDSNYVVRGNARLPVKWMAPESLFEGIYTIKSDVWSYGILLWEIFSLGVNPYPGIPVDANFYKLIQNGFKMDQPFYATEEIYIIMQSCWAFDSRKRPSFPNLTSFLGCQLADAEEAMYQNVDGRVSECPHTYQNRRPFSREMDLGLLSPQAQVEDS
Experimental: The FLT3 inhibition test was performed for the compounds of the present invention by the method described below.
A reaction mixture in a volume of 9 μL containing the FLT3 protein and a test compound of a predetermined concentration (1.2 μg of FLT3, 100 mM HEPES, 10 mM MgCl2, 25 mM NaCl, 0.01% BSA, 1 mM DTT, pH 7.5) was left standing at 25° C. for 15 minutes. […] (Toray Industries), and 3 μL (final concentration 50 μM) of ATP (Sigma-Aldrich) were added to the reaction mixture, and the mixture was shaken for 2 minutes, and then further left standing at 25° C. for 30 minutes to allow the enzymatic reaction.

MV4-11 cells = test: Leukemia cell proliferation inhibition test (ATPlite), MV4-11; type: cell-based; settings: Homo sapiens, read-out: MV4-11 cell proliferation inhibition effect
Experimental: (§1) A leukemia cell proliferation inhibition test was performed for the compounds of the present invention by using the leukemia cell strains MV4-11 (ATCC Number, CRL-9591) and Molm-13 (DSMZ Number, ACC554).
(§2) The leukemia cell proliferation inhibition test was performed by the method described below.
(§3) For the purpose of measuring proliferation inhibition attained with a compound, the total cell count was quantified on the basis of the total cellular ATP concentration using the ATPlite (PerkinElmer) reagent utilizing firefly luciferase. The Molm-13 or MV4-11 cells were added to the RPMI medium containing penicillin and streptomycin (penn/strep) and 10% FBS at a density of 2×10^5 cells/ml, and 50 μL (10,000 cells) of the cell suspension was inoculated to each well of a 96-well plate (Corning).
(§4) A serially diluted solution of a compound or 0.1% DMSO (solvent control) in a volume of 50 μL was added to the cells, and then the cells were cultured for 72 hours under the standard cell proliferation conditions (37° C., 5% CO2) to allow proliferation of the cells. In order to measure the proliferation of the total cells, equal volume of the ATPlite reaction mixture was added to each well in accordance with the instructions attached to ATPlite, and then luminescence count of the well was measured (relative light unit, RLU).
(§5) The RLU signal observed with the DMSO solvent control after 72 hours of the culture was defined as a signal indicating 0% inhibition, and the GI50 value for the proliferation inhibition corresponds to a concentration of a compound that provides 50% inhibition based on the proliferation of the total cells contained in the DMSO solvent control. Each data point was obtained from samples in duplicate. The GI50 values were calculated by the non-linear regression fitting (Fit Model (205)) according to a sigmoid dose-reaction equation using the XLfit software.

Molm-13 cells = test: Leukemia cell proliferation inhibition test (ATPlite), Molm-13; type: cell-based; settings: Homo sapiens, read-out: MOLM13 cell proliferation inhibition effect
Experimental: as §1, §2, §3, §4, §5

[2] = GST-fused human FLT3 (564 to 993 aa), ATP 50 μM
[3] = MV4-11, 72 h, MV4-11, 72 hours culture, ATPlite, GI50 per method
[4] = MOLM-13, 72 h, Molm-13, 72 hours culture, ATPlite, GI50 per method

| pIC50 [1, 2] | pIC50 (MV4-11 cells; [3]) | pIC50 (Molm-13 cells; [4]) | pIC50 ([1]; FLT3 (WT)) | pIC50 (MV4-11 cells; MV4-11, MV4-11 cell) | pIC50 (Molm-13 cells; MOLM-13, MOLM13 cell) | Structure (SMILES) |
| --- | --- | --- | --- | --- | --- | --- |
| > 8.00 | > 8.00 | > 8.00 |  |  |  | C[C@@H](C(=O)N[C@H]1C[C@@H](C#Cc2cnc(Nc3ccc(F)cc3)nc2NC2CC2)C1)N(C)C(=O)/C=C/CN(C)C (relative stereo) [Compound 15-9, (E)-N—((S)-1-(((1S*,3R*)-3-((4-(Cyclopropylamino)-2-((4-fluorophenyl)amino)pyrimidin-5-yl)ethynyl)cyclobutyl)amino)-1-oxopropan-2-yl)-4-(dimethylamino)-N-methyl-2-butenamide] |
|  |  |  | > 8.00 | > 8.00 | > 8.00 | CCCNc1nc(Nc2ccc3[nH]ncc3c2)ncc1C#CCCCNC(=O)[C@@H]1CCCN1C(=O)/C=C/CN(C)C [Compound 22-62] |
|  |  |  | > 8.00 | > 8.00 | > 8.00 | CNc1nc(Nc2ccc(OC)c(F)c2)ncc1C#C[C@@H]1CCC[C@H](NC(=O)[C@H](C)N(C)C(=O)/C=C/CN(C)C)C1 [Compound 21-32, (E)-4-(Dimethylamino)-N—((S)-1-(((1S,3R)-3-((2-((3-fluoro-4-methoxyphenyl)amino)-4-(methylamino)pyrimidin-5-yl)ethynyl)cyclohexyl)amino)-1-oxopropan-2-yl)-N-methyl-2-butenamide] |
| > 8.00 | > 8.00 | > 8.00 |  |  |  | CNc1nc(Nc2ccc(F)nc2)ncc1C#C[C@@H]1CCC[C@H](NC(=O)[C@H](C)N(C)C(=O)/C=C/CN(C)C)C1 [Compound 15-3] |
| > 8.00 | > 8.00 | > 8.00 |  |  |  | C[C@@H](C(=O)NCCC(C)(C)C#Cc1cnc(Nc2ccc(C#N)cc2)nc1NC1CC1)N(C)C(=O)/C=C/CN(C)C [Compound 9-27] |
| > 8.00 | > 8.00 | > 8.00 |  |  |  | COCCCNc1nc(Nc2ccc3cn[nH]c3c2)ncc1C#CCCCNC(=O)[C@@H]1CCCN1C(=O)/C=C/CN(C)C [Compound 10-71] |
| > 8.00 | > 8.00 | > 8.00 |  |  |  | COCCCNc1nc(Nc2ccc3[nH]ncc3c2)ncc1C#CCCCNC(=O)[C@H](C)N(C)C(=O)/C=C/CN(C)C [Compound 10-62] |
| > 8.00 | > 8.00 | > 8.00 |  |  |  | CCCNc1nc(Nc2cccc(F)c2)ncc1C#Cc1cccc(NC(=O)[C@H](C)N(C)C(=O)/C=C/CN(C)C)c1 [Compound 8-1, (S,E)-4-(dimethylamino)-N-(1-((3-((2-((3-fluorophenyl)amino)-4-(propylamino)pyrimidin-5-yl)ethynyl)phenyl)amino)-1-oxopropan-2-yl)-N-methyl-2-butenamide] |
| > 8.00 | > 8.00 | > 8.00 |  |  |  | CC[C@@H](C(=O)NCCCC#Cc1cnc(Nc2ccc(F)nc2)nc1Nc1ccc(OC)cc1)N(C)C(=O)/C=C/CN(C)C [Compound 10-37] |
| > 8.00 | > 8.00 | > 8.00 |  |  |  | CCCCCN(CC(=O)NCCCC#Cc1cnc(Nc2ccc(C#N)cc2)nc1NCCC)C(=O)/C=C/CN(C)C [Compound 7-71] |
| > 8.00 | > 8.00 | > 8.00 |  |  |  | C[C@@H](C(=O)NCCCC#Cc1cnc(Nc2ccc(C#N)cc2)nc1N1CCC(F)(F)C1)N(C)C(=O)/C=C/CN(C)C [Compound 10-42] |
|  |  |  | > 8.00 | > 8.00 | > 8.00 | CC(C)Nc1nc(Nc2ccc(C#N)cc2)ncc1C#CCCCNC(=O)[C@H](C)N(C)C(=O)/C=C/CN(C)C [Compound 21-33] |
| > 8.00 | 6.00 to 7.00 | < 6.00 |  |  |  | CCCNc1nc(Nc2ccc(C(N)=O)cc2)ncc1C(=O)Nc1cccc(NC(CNC(=O)/C=C/CN(C)C)C(F)(F)F)c1 (stereo not drawn) [Compound 3-17] |
| > 8.00 | > 8.00 | > 8.00 |  |  |  | C[C@@H](C(=O)NCCCC#Cc1cnc(Nc2ccnc(F)c2)nc1N1CCCC1)N(C)C(=O)/C=C/CN(C)C [Compound 9-12, (S,E)-4-(Dimethylamino)-N-(1-((5-(2-((2-fluoropyridin-4-yl)amino)-4-(pyrrolidin-1-yl)pyrimidin-5-yl)-4-pentyn-1-yl)amino)-1-oxopropan-2-yl)-N-methyl-2-butenamide] |
